Assay results as given in ChEMBL document CHEMBL4041516, “SAR study of 5-alkynyl substituted quinazolin-4(3H)-ones as phosphoinositide 3-kinase delta (PI3Kδ) inhibitors” (Eur J Med Chem, 2017).
Each block holds one compound with its values, some of them ahead of it. Activity calls are given as the source filed them. The calls are words filed in the database; no cut-off is given here.

Legend:
[1] = biological target: T1, Phosphatidylinositol 4,5-bisphosphate 3-kinase catalytic subunit alpha isoform (Homo sapiens, UniProt P42336); assay: Inhibition of PI3Kalpha (unknown origin) using biotinylated PIP2 as substrate after 2 hrs by TR-FRET assay
[2] = system: U-937; assay: Inhibition of phorbol 12-myristate 13-acetate-induced peroxide production in human U937 cells; format: functional, cell-based
[3] = biological target: T2, Phosphatidylinositol 4,5-bisphosphate 3-kinase catalytic subunit delta isoform (Homo sapiens, UniProt O00329); assay: Inhibition of PI3Kdelta (unknown origin) using biotinylated PIP2 as substrate after 2 hrs by TR-FRET assay
T2 sequence (O00329 whole entry): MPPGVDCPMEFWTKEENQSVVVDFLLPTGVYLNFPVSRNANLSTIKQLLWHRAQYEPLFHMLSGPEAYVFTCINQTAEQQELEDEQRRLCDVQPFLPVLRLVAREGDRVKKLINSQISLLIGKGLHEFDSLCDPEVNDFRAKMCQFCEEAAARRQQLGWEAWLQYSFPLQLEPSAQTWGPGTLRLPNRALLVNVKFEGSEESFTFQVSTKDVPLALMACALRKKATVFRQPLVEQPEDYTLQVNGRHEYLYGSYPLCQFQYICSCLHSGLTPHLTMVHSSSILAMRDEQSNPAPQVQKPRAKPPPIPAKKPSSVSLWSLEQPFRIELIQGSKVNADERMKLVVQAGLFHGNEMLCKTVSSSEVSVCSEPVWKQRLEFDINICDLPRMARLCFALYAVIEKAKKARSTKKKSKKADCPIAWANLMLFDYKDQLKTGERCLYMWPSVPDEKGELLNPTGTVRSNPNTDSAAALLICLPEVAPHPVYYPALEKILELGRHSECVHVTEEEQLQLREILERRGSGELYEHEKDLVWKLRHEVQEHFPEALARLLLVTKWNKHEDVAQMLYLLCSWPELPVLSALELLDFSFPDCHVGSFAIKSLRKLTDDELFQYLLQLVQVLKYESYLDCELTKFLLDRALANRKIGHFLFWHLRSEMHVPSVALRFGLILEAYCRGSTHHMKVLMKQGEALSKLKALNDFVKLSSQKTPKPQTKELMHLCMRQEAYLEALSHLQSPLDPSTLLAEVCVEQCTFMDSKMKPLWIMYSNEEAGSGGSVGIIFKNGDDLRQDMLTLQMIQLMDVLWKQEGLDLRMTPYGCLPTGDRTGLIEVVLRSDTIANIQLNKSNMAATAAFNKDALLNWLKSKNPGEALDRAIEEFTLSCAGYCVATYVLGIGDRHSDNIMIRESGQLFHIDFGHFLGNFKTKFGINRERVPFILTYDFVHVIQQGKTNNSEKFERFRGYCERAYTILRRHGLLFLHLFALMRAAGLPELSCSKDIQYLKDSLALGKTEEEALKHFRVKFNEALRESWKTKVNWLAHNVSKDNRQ

[4] = biological target: T3, Phosphatidylinositol 4,5-bisphosphate 3-kinase catalytic subunit gamma isoform (Homo sapiens, UniProt P48736); assay: Inhibition of PI3Kgamma (unknown origin) using biotinylated PIP2 as substrate after 2 hrs by TR-FRET assay
[5] = system: NAMALVA; assay: Antiproliferative activity against human NAMALWA cells measured after 72 hrs by alamar blue assay; format: functional, cell-based
[6] = Half life in Sprague-Dawley rat at 5 mg/kg, iv; format: ADME, organism-based; conditions: in vivo
[7] = biological target: T4, Phosphatidylinositol 4,5-bisphosphate 3-kinase catalytic subunit delta isoform (Homo sapiens) (UniProt O00329); assay: Inhibition of PI3Kdelta-mediated S6k1 phosphorylation at T389 in human SUDHL6 cells measured after 1 hr by Western blot analysis; format: cell-based
T4 sequence (whole entry): T2 sequence (O00329 whole entry)

[8] = biological target: T3, Phosphatidylinositol 4,5-bisphosphate 3-kinase catalytic subunit gamma isoform; assay: Inhibition of PI3Kgamma (unknown origin) using PIP2 as substrate measured after 30 mins by HTRF assay
[9] = biological target: Phosphatidylinositol 4,5-bisphosphate 3-kinase catalytic subunit beta isoform (Homo sapiens, UniProt P42338); assay: Inhibition of PI3Kbeta (unknown origin) using PIP2 as substrate measured after 30 mins by HTRF assay
[10] = system: SU-DHL10; assay: Antiproliferative activity against human SU-DHL10 cells measured after 72 hrs by alamar blue assay; format: functional, cell-based; conditions: SU-DHL10, 72 h
[11] = biological target: T4, Phosphatidylinositol 4,5-bisphosphate 3-kinase catalytic subunit delta isoform (Homo sapiens); assay: Inhibition of PI3Kdelta-mediated S6k1 phosphorylation at T389 in human MOLT4 cells measured after 1 hr by Western blot analysis; format: cell-based
[12] = AUC (infinity) in Sprague-Dawley rat at 10 mg/kg, po; format: ADME, organism-based; set-up: dose 10 mg/kg, route oral, time infinity; conditions: in vivo
[13] = system: HT; assay: Antiproliferative activity against human HT cells measured after 72 hrs by alamar blue assay; format: functional, cell-based
[14] = biological target: T4, Phosphatidylinositol 4,5-bisphosphate 3-kinase catalytic subunit delta isoform (Homo sapiens); assay: Inhibition of PI3Kdelta-mediated Akt phosphorylation at […] in human SUDHL6 cells measured after 1 hr by Western blot analysis; format: cell-based
[15] = Half life in Sprague-Dawley rat at 10 mg/kg, po; format: ADME, organism-based; conditions: in vivo
[16] = system: KARPAS-422; assay: Antiproliferative activity against human KARPAS422 cells measured after 72 hrs by alamar blue assay; format: functional, cell-based; conditions: KARPAS-422, 72 h
[17] = biological target: hERG (KCNH2) (Homo sapiens, UniProt Q12809); assay: Inhibition of human ERG at 40 uM relative to control
[18] = Antiproliferative activity against human WSU-DLCL2 cells measured after 72 hrs by alamar blue assay; format: functional, cell-based; conditions: WSUDLCL2, 72 h
[19] = system: MOLT-4; assay: Antiproliferative activity against human MOLT4 cells measured after 72 hrs by alamar blue assay; format: functional, cell-based; conditions: MOLT-4, 72 h
[20] = Volume of distribution in Sprague-Dawley rat at 5 mg/kg, iv; format: ADME, organism-based; conditions: in vivo
[21] = biological target: T4, Phosphatidylinositol 4,5-bisphosphate 3-kinase catalytic subunit delta isoform (Homo sapiens); assay: Inhibition of PI3Kdelta-mediated Akt phosphorylation in human SUDHL6 cells at 3 nM measured after 1 hr by Western blot analysis; format: cell-based
[22] = system: Pfeiffer; assay: Antiproliferative activity against human Pfeiffer cells measured after 72 hrs by alamar blue assay; format: functional, cell-based
[23] = system: SUD4; assay: Antiproliferative activity against human SU-DHL4 cells measured after 72 hrs by alamar blue assay; format: functional, cell-based; conditions: SU-DHL-4, 72 h
[24] = Oral bioavailability in Sprague-Dawley rat at 10 mg/kg; format: ADME, organism-based; conditions: in vivo
[25] = AUClast in Sprague-Dawley rat at 10 mg/kg, po; format: ADME, organism-based; set-up: dose 10 mg/kg, time 0 - last, route oral; conditions: in vivo
[26] = biological target: T1, Phosphatidylinositol 4,5-bisphosphate 3-kinase catalytic subunit alpha isoform; assay: Inhibition of PI3Kalpha (unknown origin) using PIP2 as substrate measured after 30 mins by HTRF assay
[27] = biological target: T2, Phosphatidylinositol 4,5-bisphosphate 3-kinase catalytic subunit delta isoform; assay: Inhibition of PI3Kdelta (unknown origin) using PIP2 as substrate measured after 30 mins by HTRF assay
[28] = system: Rattus norvegicus; assay: AUC (infinity) in Sprague-Dawley rat at 5 mg/kg, iv; format: ADME, organism-based; set-up: dose 5 mg/kg, time infinity, route intravenous; conditions: in vivo
[29] = AUClast in Sprague-Dawley rat at 5 mg/kg, iv; format: ADME, organism-based; set-up: dose 5 mg/kg, time 0 - last, route intravenous; conditions: in vivo
[30] = system: SU-DHL-6; assay: Antiproliferative activity against human SUDHL6 cells measured after 72 hrs by alamar blue assay; format: functional, cell-based; conditions: SU-DHL-6, 72 h
[31] = biological target: T4, Phosphatidylinositol 4,5-bisphosphate 3-kinase catalytic subunit delta isoform (Homo sapiens); assay: Inhibition of PI3Kdelta-mediated Akt phosphorylation at […] in human MOLT4 cells measured after 1 hr by Western blot analysis; format: cell-based
[32] = system: SU-DHL-1; assay: Antiproliferative activity against human SU-DHL1 cells measured after 72 hrs by alamar blue assay; format: functional, cell-based; conditions: SU-DHL-1, 72 h
[33] = biological target: Voltage-gated inwardly rectifying potassium channel KCNH2 (Homo sapiens, UniProt Q12809); assay: Inhibition of human ERG; conditions: read-out: IC50

T1 sequence (P42336 whole entry, canonical isoform): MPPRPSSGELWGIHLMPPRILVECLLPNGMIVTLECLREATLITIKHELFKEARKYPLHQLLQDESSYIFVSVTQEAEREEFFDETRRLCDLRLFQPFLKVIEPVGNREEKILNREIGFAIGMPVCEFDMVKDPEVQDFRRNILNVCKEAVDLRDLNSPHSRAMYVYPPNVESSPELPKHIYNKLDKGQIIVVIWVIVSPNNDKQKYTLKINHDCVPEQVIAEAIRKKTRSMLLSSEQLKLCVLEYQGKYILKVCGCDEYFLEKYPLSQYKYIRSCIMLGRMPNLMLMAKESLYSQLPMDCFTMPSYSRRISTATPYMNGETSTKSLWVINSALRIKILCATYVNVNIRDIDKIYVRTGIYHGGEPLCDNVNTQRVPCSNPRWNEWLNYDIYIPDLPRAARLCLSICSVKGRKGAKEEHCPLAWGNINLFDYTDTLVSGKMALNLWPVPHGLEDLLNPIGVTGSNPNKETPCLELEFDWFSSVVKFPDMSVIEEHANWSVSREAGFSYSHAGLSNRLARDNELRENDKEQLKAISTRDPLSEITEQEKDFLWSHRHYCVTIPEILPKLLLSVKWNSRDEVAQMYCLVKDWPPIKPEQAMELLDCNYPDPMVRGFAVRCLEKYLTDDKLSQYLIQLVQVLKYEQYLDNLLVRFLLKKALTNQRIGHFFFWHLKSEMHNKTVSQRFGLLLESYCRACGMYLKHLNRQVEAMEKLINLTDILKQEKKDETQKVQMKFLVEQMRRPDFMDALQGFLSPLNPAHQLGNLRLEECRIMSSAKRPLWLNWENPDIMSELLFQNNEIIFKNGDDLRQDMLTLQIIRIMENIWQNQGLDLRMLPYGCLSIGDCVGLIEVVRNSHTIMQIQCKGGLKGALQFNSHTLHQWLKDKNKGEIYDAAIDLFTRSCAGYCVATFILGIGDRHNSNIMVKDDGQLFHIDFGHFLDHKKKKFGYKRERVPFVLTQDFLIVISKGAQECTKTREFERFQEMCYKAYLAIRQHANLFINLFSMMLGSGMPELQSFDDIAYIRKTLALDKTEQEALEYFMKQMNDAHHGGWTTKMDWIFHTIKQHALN
T3 sequence (P48736 whole entry, canonical isoform): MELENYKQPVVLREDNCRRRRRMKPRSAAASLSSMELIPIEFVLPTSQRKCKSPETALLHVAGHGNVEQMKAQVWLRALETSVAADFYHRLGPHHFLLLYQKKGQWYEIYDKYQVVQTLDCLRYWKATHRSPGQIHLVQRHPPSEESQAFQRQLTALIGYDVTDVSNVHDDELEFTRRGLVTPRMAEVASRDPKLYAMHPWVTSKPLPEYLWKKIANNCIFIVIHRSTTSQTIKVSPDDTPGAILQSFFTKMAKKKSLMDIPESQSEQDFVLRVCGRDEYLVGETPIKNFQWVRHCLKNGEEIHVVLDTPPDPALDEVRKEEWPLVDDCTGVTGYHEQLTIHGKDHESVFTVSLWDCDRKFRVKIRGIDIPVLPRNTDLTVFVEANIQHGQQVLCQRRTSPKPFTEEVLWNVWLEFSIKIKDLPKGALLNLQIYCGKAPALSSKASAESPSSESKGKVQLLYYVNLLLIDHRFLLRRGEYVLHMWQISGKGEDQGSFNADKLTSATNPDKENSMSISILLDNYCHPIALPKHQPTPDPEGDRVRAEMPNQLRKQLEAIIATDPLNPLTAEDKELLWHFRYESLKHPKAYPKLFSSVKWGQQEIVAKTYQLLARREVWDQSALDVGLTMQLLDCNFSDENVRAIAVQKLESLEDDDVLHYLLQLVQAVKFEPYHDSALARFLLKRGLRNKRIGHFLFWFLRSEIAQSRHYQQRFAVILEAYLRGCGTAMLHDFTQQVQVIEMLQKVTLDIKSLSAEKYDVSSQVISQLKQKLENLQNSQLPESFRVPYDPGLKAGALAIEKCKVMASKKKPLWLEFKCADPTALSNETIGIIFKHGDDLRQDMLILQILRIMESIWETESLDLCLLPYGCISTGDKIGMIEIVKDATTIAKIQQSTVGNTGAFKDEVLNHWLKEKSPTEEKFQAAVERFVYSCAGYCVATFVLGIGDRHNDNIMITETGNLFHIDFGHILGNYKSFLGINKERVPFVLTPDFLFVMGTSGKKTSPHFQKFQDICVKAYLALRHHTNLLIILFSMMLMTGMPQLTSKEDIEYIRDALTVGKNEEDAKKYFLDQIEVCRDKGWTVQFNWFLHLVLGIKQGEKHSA
Phosphatidylinositol 4,5-bisphosphate 3-kinase catalytic subunit beta isoform, sequence (P42338 whole entry, canonical isoform): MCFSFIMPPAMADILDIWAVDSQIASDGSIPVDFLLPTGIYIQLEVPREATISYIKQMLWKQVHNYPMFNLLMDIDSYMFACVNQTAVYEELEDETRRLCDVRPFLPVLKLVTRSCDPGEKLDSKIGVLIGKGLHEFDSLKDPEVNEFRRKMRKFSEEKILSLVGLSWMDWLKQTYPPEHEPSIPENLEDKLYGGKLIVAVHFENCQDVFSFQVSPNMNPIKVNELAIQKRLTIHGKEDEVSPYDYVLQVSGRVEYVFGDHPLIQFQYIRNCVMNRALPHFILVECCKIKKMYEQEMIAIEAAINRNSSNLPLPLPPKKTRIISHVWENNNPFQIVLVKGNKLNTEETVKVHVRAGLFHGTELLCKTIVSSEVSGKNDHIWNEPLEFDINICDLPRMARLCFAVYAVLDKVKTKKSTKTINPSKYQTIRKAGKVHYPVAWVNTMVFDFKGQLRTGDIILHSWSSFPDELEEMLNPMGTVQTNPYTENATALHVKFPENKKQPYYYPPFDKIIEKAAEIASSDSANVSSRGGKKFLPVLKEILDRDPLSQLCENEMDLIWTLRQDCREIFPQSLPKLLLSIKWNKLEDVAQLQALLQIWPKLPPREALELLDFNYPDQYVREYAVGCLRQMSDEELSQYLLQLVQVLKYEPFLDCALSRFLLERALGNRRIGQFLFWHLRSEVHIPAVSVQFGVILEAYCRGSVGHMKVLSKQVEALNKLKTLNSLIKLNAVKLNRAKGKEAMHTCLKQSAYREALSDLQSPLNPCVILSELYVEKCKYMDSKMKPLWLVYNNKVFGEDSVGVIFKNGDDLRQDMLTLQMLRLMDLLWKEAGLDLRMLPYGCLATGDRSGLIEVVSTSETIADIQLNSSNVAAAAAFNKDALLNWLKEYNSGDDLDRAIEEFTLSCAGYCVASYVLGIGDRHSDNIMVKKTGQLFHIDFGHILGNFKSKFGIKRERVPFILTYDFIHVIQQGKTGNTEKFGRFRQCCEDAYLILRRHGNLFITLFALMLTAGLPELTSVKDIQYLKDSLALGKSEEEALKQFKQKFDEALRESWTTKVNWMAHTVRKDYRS
hERG (KCNH2), sequence (Q12809 whole entry): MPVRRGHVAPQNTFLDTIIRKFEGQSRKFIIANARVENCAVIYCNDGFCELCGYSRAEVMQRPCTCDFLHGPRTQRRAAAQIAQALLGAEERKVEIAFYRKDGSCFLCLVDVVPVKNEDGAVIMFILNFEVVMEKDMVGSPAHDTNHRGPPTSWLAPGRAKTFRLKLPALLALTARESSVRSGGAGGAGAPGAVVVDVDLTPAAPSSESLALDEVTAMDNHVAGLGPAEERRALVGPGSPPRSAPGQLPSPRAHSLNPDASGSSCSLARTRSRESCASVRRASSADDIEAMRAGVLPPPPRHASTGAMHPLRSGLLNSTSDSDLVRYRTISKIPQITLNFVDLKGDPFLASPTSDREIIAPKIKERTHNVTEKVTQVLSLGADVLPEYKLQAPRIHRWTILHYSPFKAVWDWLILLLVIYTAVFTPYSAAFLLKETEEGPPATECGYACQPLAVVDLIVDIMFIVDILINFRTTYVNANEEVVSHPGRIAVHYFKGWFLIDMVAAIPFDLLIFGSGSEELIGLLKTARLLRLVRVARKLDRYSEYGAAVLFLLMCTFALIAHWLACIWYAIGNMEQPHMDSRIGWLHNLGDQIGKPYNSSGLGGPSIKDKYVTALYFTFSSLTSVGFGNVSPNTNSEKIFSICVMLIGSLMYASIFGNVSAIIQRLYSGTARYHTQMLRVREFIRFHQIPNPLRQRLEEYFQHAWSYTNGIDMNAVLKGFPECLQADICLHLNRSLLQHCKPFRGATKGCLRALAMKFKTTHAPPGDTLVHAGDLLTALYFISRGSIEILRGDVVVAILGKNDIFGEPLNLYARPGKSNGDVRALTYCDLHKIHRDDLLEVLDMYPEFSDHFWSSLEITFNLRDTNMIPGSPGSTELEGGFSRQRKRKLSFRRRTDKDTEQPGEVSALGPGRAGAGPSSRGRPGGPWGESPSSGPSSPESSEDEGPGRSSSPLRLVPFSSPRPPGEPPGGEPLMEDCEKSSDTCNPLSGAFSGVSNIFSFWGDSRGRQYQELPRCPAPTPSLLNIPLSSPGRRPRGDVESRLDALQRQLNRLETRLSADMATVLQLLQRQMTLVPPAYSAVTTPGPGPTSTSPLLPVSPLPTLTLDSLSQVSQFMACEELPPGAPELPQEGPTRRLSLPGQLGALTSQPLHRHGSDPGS

IC50 [1]: 1.49 µM | IC50 [2]: 0.0011 µM | IC50 [3]: 0.003 to 0.012 µM | IC50 [4]: 0.047 µM
SMILES: COCCOCCNC(=O)CCCC#Cc1cccc2nc(Cn3nc(-c4cccc(O)c4)c4c(N)ncnc43)n(Cc3ccccc3Cl)c(=O)c12

half-life [6]: 1.28 h | inhibition [7]: Dose-dependent effect | IC50 [8]: 0.0919 µM | IC50 [9]: 0.509 µM | IC50 [10]: 1.9 µM | inhibition [11]: Dose-dependent effect | AUC(0-inf) [12]: 958 ng·h/mL | inhibition [14]: Dose-dependent effect | half-life [15]: 1.46 h | IC50 [16]: 2 µM | IC50 [19]: 2.4 µM | Vd [20]: 0.545 L/kg | inhibition [21]: Active | bioavailability [24]: 29.7% | AUC(0-t) [25]: 938 ng·h/mL | IC50 [26]: 0.591 µM | IC50 [27]: 0.00382 µM | AUC [28]: 1057 ng·h/mL | AUC(0-t) [29]: 1050 ng·h/mL | IC50 [30]: 0.0076 µM | inhibition [31]: Dose-dependent effect | IC50 [32]: 5.6 µM
SMILES: CC[C@H](Nc1nc(N)nc(N)c1C#N)c1nc2cccc(C#CCCCC(=O)N3CCOCC3)c2c(=O)n1-c1ccccc1
IC50 [5]: 3.3 µM | IC50 [13]: 4.9 µM | inhibition at 40 µM [17]: 34.1% | IC50 [18]: 5.7 µM | IC50 [22]: 1.4 µM | IC50 [23]: 1.6 µM | IC50 [33]: > 40 µM
